Results published in patent US20240148821A1, “PHARMACEUTICAL USE OF CYCLIC PEPTIDE COMPOUND” (CHUGAI SEIYAKU KABUSHIKI KAISHA, priority 2021, published 2024).
Numbered stars: 1 amine (or outer) side, 2 acyl side, 3 side chain; on linkers, the order of the positions; unused ones are H or OH. Bridge positions count the residues as written; N and C are the ends. Square brackets hold non-standard residues; d marks the D form. Peptide text beside a SMILES is read from it. * marks the point of attachment. hPhe(3-Cl-4-CF3) = N[C@@H](CCc1ccc(C(F)(F)F)c(Cl)c1)C(=O)O; NMePhe(4-Me) = CN[C@@H](Cc1ccc(C)cc1)C(=O)O; NMePhe(4-F) = CN[C@@H](Cc1ccc(F)cc1)C(=O)O; NMedβ3hAla = C[C@H](CC(=O)[*:2])N(C)[*:1]; NMeAla(cPent) = CN[C@@H](CC1CCCC1)C(=O)O; NMeGly(cPent) = CN[C@H](C(=O)O)C1CCCC1; NMeCha = CN[C@@H](CC1CCCCC1)C(=O)O; NMeGly(cPr) = CN[C@H](C(=O)O)C1CC1; NMehLeu = CN[C@@H](CCC(C)C)C(=O)O; NMeI = CC[C@H](C)[C@H](NC)C(=O)O; NMeD = CN[C@@H](CC(=O)O)C(=O)O; NMeL = CN[C@@H](CC(C)C)C(=O)O; Ahp(2) = CCCCC[C@H](N)C(=O)O; NMeV = CN[C@H](C(=O)O)C(C)C; NMeS = CN[C@@H](CO)C(=O)O; NMeA = CN[C@@H](C)C(=O)O; Nle = CCCC[C@H](N)C(=O)O; Piperidide = C1CCN(*)CC1; Pyrrolidide = C1CCN(*)C1; dNMeA = CN[C@H](C)C(=O)O; Ac5c = NC1(C(=O)O)CCCC1; Aze = O=C(O)[C@@H]1CCN1; Cyclopropyl = C1CC1*; Sar = CNCC(=O)O; Propyl = CCC*

Key:
[1] = tested on: Human pancreatic cancer cell line AsPC-1 (G12D mutation Kras); assay: AsPC-1 cell growth inhibition (AsPC-1 CGI); type: cell-based; settings: read-out: AsPC-1 cell growth inhibition, 50% growth inhibitory concentration (IC50 value); 96 hours, CellTiter-Glo, values classified in ranges
Protocol: Test compounds were serially dilated with dimethyl sulfoxide, and 200 nL was then dispensed to a U-bottom 96-well plate using Labcyte Echo. […] The cell suspension was dispensed to a. plate containing a test compound at 100 μL per well and incubated at 37° C. in a 5% carbon dioxide gas incubator. 96 hours later, 80 μL of CellTiter-Glo (Promega) was added to each well and fluorescence was measured.

[2] = biological target: protein-protein interaction between Kras and SOS1 (biotin-tagged human Kras loaded with GDP, His-tagged human SOS1) (Homo sapiens (Human), UniProt P01116, G12D); assay: Protein-protein interaction inhibition between Kras and SOS1 (KrasG12D-SOS PPI) using AlphaScreen; type: biochemical; settings: AlphaScreen; biotin-tagged human Kras loaded with GDP, His-tagged human SOS1; read-out: KRAS G12D-SOS PPI IC50;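 note: kras produced in E. coli, Ni-coupled donor beads and streptavidin acceptor beads, excitation 680 nm with emission detected at 520–620 nm via singlet oxygen transfer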

| Compound | IC50 [1] [nM] | IC50 [2] [nM] |
| --- | --- | --- |
| CC[C@H](C)[C@@H]1NC(=O)[C@H](CC(C)C)N(C)C(=O)C[C@@H](C(=O)N2CCCCC2)N(C)C(=O)[C@H](CCC(C)C)N(C)C(=O)C2(CCCC2)NC(=O)[C@@H]2CCCN2C(=O)[C@H](CCc2ccc(C(F)(F)F)c(Cl)c2)NC(=O)CN(C)C(=O)[C@H](CC2CCCCC2)N(C)C(=O)[C@@H]2CCN2C(=O)[C@H](C)N(C)C1=O [Compound 1776] ([NMeL]I[NMeA][Aze][NMeCha][Sar][hPhe(3-Cl-4-CF3)]P[Ac5c][NMehLeu][NMeD]-Piperidide; lactam N-11) | > 500 | 24 |
| CC[C@H](C)[C@@H]1NC(=O)[C@H](CC(C)C)N(C)C(=O)C[C@@H](C(=O)N(C)C)N(C)C(=O)[C@H](C2CCCC2)N(C)C(=O)C2(CCCC2)NC(=O)[C@@H]2CCCN2C(=O)[C@H](CCc2ccc(C(F)(F)F)c(Cl)c2)NC(=O)CN(C)C(=O)[C@H](CC2CCCCC2)N(C)C(=O)[C@@H]2CCN2C(=O)[C@H](C)N(C)C1=O [Compound 1777] ([NMeL]I[NMeA][Aze][NMeCha][Sar][hPhe(3-Cl-4-CF3)]P[Ac5c][NMeGly(cPent)][NMeD]-NMe2; lactam N-11) | ≤ 20 | 0.63 |
| CC(C)C[C@H]1C(=O)N[C@@H](C)C(=O)N(C)[C@@H](C)C(=O)N2CC[C@H]2C(=O)N(C)[C@@H](CC2CCCCC2)C(=O)N(C)CC(=O)N[C@@H](CCc2ccc(C(F)(F)F)c(Cl)c2)C(=O)N2CCC[C@H]2C(=O)NC2(CCCC2)C(=O)N(C)[C@@H](C(C)C)C(=O)N(C)[C@H](C(=O)N2CCCCC2)CC(=O)N1C [Compound 1780] ([NMeL]A[NMeA][Aze][NMeCha][Sar][hPhe(3-Cl-4-CF3)]P[Ac5c][NMeV][NMeD]-Piperidide; lactam N-11) | > 500 | 120 |
| CC[C@H](C)[C@@H]1NC(=O)[C@H](CC(C)C)N(C)C(=O)C[C@@H](C(=O)N2CCCCC2)N(C)C(=O)[C@H](C2CCCC2)N(C)C(=O)C2(CCCC2)NC(=O)[C@@H]2CCCN2C(=O)[C@H](CCc2ccc(C(F)(F)F)c(Cl)c2)NC(=O)CN(C)C(=O)[C@H](CC2CCCCC2)N(C)C(=O)[C@@H]2CCN2C(=O)[C@H](C)N(C)C1=O [Compound 1787] ([NMeL]I[NMeA][Aze][NMeCha][Sar][hPhe(3-Cl-4-CF3)]P[Ac5c][NMeGly(cPent)][NMeD]-Piperidide; lactam N-11) | ≤ 20 | 1.1 |
| CC[C@H](C)[C@@H]1NC(=O)[C@H](CC(C)C)N(C)C(=O)C[C@@H](C)N(C)C(=O)[C@H]([C@@H](C)CC)N(C)C(=O)C2(CCCC2)NC(=O)[C@@H]2CCCN2C(=O)[C@H](CCc2ccc(C(F)(F)F)c(Cl)c2)NC(=O)CN(C)C(=O)[C@H](Cc2ccc(C)cc2)N(C)C(=O)[C@@H]2CCN2C(=O)[C@H](C)N(C)C1=O [Compound 1793] (cyclo([Ac5c][NMeI][NMedβ3hAla][NMeL]I[NMeA][Aze][NMePhe(4-Me)][Sar][hPhe(3-Cl-4-CF3)]P)) | ≤ 20 | 1.9 |
| CC[C@H](C)[C@@H]1NC(=O)[C@H](CC(C)C)N(C)C(=O)C[C@@H](C)N(C)C(=O)[C@H](C(C)C)N(C)C(=O)C2(CCCC2)NC(=O)[C@@H]2CCCN2C(=O)[C@H](CCc2ccc(C(F)(F)F)c(Cl)c2)NC(=O)CN(C)C(=O)[C@H](Cc2ccc(C)cc2)N(C)C(=O)[C@@H]2CCN2C(=O)[C@H](C)N(C)C1=O [Compound 1809] (cyclo([Ac5c][NMeV][NMedβ3hAla][NMeL]I[NMeA][Aze][NMePhe(4-Me)][Sar][hPhe(3-Cl-4-CF3)]P)) | ≤ 20 | 1.4 |
| CC(C)C[C@H]1C(=O)N[C@@H](COC2CC2)C(=O)N(C)[C@@H](C)C(=O)N2CC[C@H]2C(=O)N(C)[C@@H](CC2CCCCC2)C(=O)N(C)CC(=O)N[C@@H](CCc2ccc(C(F)(F)F)c(Cl)c2)C(=O)N2CCC[C@H]2C(=O)NC2(CCCC2)C(=O)N(C)[C@@H](C(C)C)C(=O)N(C)[C@H](C(=O)N2CCCCC2)CC(=O)N1C [Compound 1811] ([NMeL]S(Cyclopropyl)[NMeA][Aze][NMeCha][Sar][hPhe(3-Cl-4-CF3)]P[Ac5c][NMeV][NMeD]-Piperidide; lactam N-11) | > 500 | 56 |
| CC[C@H](C)[C@@H]1NC(=O)[C@H](C)N(C)C(=O)C[C@@H](C(=O)N2CCCCC2)N(C)C(=O)[C@H](C(C)C)N(C)C(=O)C2(CCCC2)NC(=O)[C@@H]2CCCN2C(=O)[C@H](CCc2ccc(C(F)(F)F)c(Cl)c2)NC(=O)[C@@H](C)N(C)C(=O)[C@H](Cc2ccc(F)cc2)N(C)C(=O)[C@@H]2CCN2C(=O)[C@H](C)N(C)C1=O [Compound 1816] ([NMeA]I[NMeA][Aze][NMePhe(4-F)][dNMeA][hPhe(3-Cl-4-CF3)]P[Ac5c][NMeV][NMeD]-Piperidide; lactam N-11) | > 500 | 12 |
| CC[C@H](C)[C@@H]1NC(=O)[C@H](CC(C)C)N(C)C(=O)C[C@@H](C(=O)N2CCCCC2)N(C)C(=O)[C@H](CC2CCCC2)N(C)C(=O)C2(CCCC2)NC(=O)[C@@H]2CCCN2C(=O)[C@H](CCc2ccc(C(F)(F)F)c(Cl)c2)NC(=O)CN(C)C(=O)[C@H](CC2CCCCC2)N(C)C(=O)[C@@H]2CCN2C(=O)[C@H](C)N(C)C1=O [Compound 1820] ([NMeL]I[NMeA][Aze][NMeCha][Sar][hPhe(3-Cl-4-CF3)]P[Ac5c][NMeAla(cPent)][NMeD]-Piperidide; lactam N-11) | > 500 | 14 |
| CC[C@H](C)[C@@H]1NC(=O)[C@H](CC(C)C)N(C)C(=O)C[C@@H](C(=O)N2CCCCC2)N(C)C(=O)[C@H](C2CC2)N(C)C(=O)C2(CCCC2)NC(=O)[C@@H]2CCCN2C(=O)[C@H](CCc2ccc(C(F)(F)F)c(Cl)c2)NC(=O)CN(C)C(=O)[C@H](CC2CCCCC2)N(C)C(=O)[C@@H]2CCN2C(=O)[C@H](C)N(C)C1=O [Compound 1822] ([NMeL]I[NMeA][Aze][NMeCha][Sar][hPhe(3-Cl-4-CF3)]P[Ac5c][NMeGly(cPr)][NMeD]-Piperidide; lactam N-11) | > 500 | 50 |
| CCCC[C@@H]1NC(=O)[C@H](CC(C)C)N(C)C(=O)C[C@@H](C(=O)N2CCCCC2)N(C)C(=O)[C@H](C(C)C)N(C)C(=O)C2(CCCC2)NC(=O)[C@@H]2CCCN2C(=O)[C@H](CCc2ccc(C(F)(F)F)c(Cl)c2)NC(=O)CN(C)C(=O)[C@H](CC2CCCCC2)N(C)C(=O)[C@@H]2CCN2C(=O)[C@H](C)N(C)C1=O [Compound 1823] ([NMeL][Nle][NMeA][Aze][NMeCha][Sar][hPhe(3-Cl-4-CF3)]P[Ac5c][NMeV][NMeD]-Piperidide; lactam N-11) | > 500 | 59 |
| CCCCC[C@@H]1NC(=O)[C@H](CC(C)C)N(C)C(=O)C[C@@H](C(=O)N2CCCCC2)N(C)C(=O)[C@H](C(C)C)N(C)C(=O)C2(CCCC2)NC(=O)[C@@H]2CCCN2C(=O)[C@H](CCc2ccc(C(F)(F)F)c(Cl)c2)NC(=O)CN(C)C(=O)[C@H](CC2CCCCC2)N(C)C(=O)[C@@H]2CCN2C(=O)[C@H](C)N(C)C1=O [Compound 1826] ([NMeL][Ahp(2)][NMeA][Aze][NMeCha][Sar][hPhe(3-Cl-4-CF3)]P[Ac5c][NMeV][NMeD]-Piperidide; lactam N-11) | > 500 | 99 |
| CC[C@H](C)[C@@H]1NC(=O)[C@H](C)N(C)C(=O)C[C@@H](C(=O)N2CCCC2)N(C)C(=O)[C@H](C(C)C)N(C)C(=O)C2(CCCC2)NC(=O)[C@@H]2CCCN2C(=O)[C@H](CCc2ccc(C(F)(F)F)c(Cl)c2)NC(=O)[C@@H](C)N(C)C(=O)[C@H](CC2CCCCC2)N(C)C(=O)[C@@H]2CCN2C(=O)[C@H](C)N(C)C1=O [Compound 1827] ([NMeA]I[NMeA][Aze][NMeCha][dNMeA][hPhe(3-Cl-4-CF3)]P[Ac5c][NMeV][NMeD]-Pyrrolidide; lactam N-11) | > 500 | 6.6 |
| CCCOC[C@@H]1NC(=O)[C@H](CC(C)C)N(C)C(=O)C[C@@H](C(=O)N2CCCCC2)N(C)C(=O)[C@H](C(C)C)N(C)C(=O)C2(CCCC2)NC(=O)[C@@H]2CCCN2C(=O)[C@H](CCc2ccc(C(F)(F)F)c(Cl)c2)NC(=O)CN(C)C(=O)[C@H](CC2CCCCC2)N(C)C(=O)[C@@H]2CCN2C(=O)[C@H](C)N(C)C1=O [Compound 1831] ([NMeL]S(Propyl)[NMeA][Aze][NMeCha][Sar][hPhe(3-Cl-4-CF3)]P[Ac5c][NMeV][NMeD]-Piperidide; lactam N-11) | > 500 | 71 |
| CC[C@H](C)[C@@H]1NC(=O)[C@H](CO)N(C)C(=O)C[C@@H](C(=O)N2CCCCC2)N(C)C(=O)[C@H](C(C)C)N(C)C(=O)C2(CCCC2)NC(=O)[C@@H]2CCCN2C(=O)[C@H](CCc2ccc(C(F)(F)F)c(Cl)c2)NC(=O)CN(C)C(=O)[C@H](CC2CCCCC2)N(C)C(=O)[C@@H]2CCN2C(=O)[C@H](C)N(C)C1=O [Compound 1837] ([NMeS]I[NMeA][Aze][NMeCha][Sar][hPhe(3-Cl-4-CF3)]P[Ac5c][NMeV][NMeD]-Piperidide; lactam N-11) | > 500 | 2 |
| CC[C@H](C)[C@@H]1NC(=O)[C@H](CC(C)C)N(C)C(=O)C[C@@H](C(=O)N(C)C)N(C)C(=O)[C@H]([C@@H](C)CC)N(C)C(=O)C2(CCCC2)NC(=O)[C@@H]2CCCN2C(=O)[C@H](CCc2ccc(C(F)(F)F)c(Cl)c2)NC(=O)CN(C)C(=O)[C@H](Cc2ccc(C)cc2)N(C)C(=O)[C@@H]2CCN2C(=O)[C@H](C)N(C)C1=O [Compound 1842] ([NMeL]I[NMeA][Aze][NMePhe(4-Me)][Sar][hPhe(3-Cl-4-CF3)]P[Ac5c][NMeI][NMeD]-NMe2; lactam N-11) | ≤ 20 | 0.66 |
| CC[C@H](C)[C@@H]1NC(=O)[C@H](CC(C)C)N(C)C(=O)C[C@@H](C(=O)N2CCCC2)N(C)C(=O)[C@H]([C@@H](C)CC)N(C)C(=O)C2(CCCC2)NC(=O)[C@@H]2CCCN2C(=O)[C@H](CCc2ccc(C(F)(F)F)c(Cl)c2)NC(=O)CN(C)C(=O)[C@H](CC2CCCCC2)N(C)C(=O)[C@@H]2CCN2C(=O)[C@H](C)N(C)C1=O [Compound 1843] ([NMeL]I[NMeA][Aze][NMeCha][Sar][hPhe(3-Cl-4-CF3)]P[Ac5c][NMeI][NMeD]-Pyrrolidide; lactam N-11) | ≤ 20 | 0.84 |
